Patent publication US10836732B2, “Compounds for combating arthropods” (priority 2013, dated 2020)

Experiments:
[1] = tested on: Rhipicephalus sanguineus; test: Rhipicephalus sanguineus - in vitro contact tests with adult brown dog ticks; format: in vivo; conditions: 5 μg/cm^2, adult dog ticks, after 48 h
Description: (§1) For the coating of the test tubes, 9 mg of active ingredient are first dissolved in 1 ml of acetone p.a. and then diluted to the desired concentration with acetone p.a. 250 μl of the solution are distributed homogeneously on the inner walls and base of a 25 ml test tube by turning and rocking on an orbital shaker (rocking rotation at 30 rpm for 2 h). With 900 ppm active ingredient solution and internal surface 44.7 cm^2, given homogeneous distribution, an area-based dose of 5 μg/cm^2 is achieved.
After the solvent has evaporated off, the tubes are populated with 5-10 adult dog ticks (Rhipicephalus sanguineus), sealed with a perforated plastic lid and incubated in a horizontal position in the dark at room temperature and ambient humidity. After 48 h, efficacy is determined To this end, the ticks are knocked to the floor of the tube and incubated on a hotplate at 45-50° C. for not more than 5 min Ticks which remain motionless on the floor or move in such an uncoordinated manner that they are unable to deliberately avoid the heat by climbing upwards are considered to be dead or moribund.
An efficacy of 100% means that all the ticks were dead or moribund. 0% efficacy means that none of the ticks had been harmed.

[2] = tested on: Ctenocephalides felis; test: Ctenocephalides felis - in vitro contact tests with fleas (CTECFE); format: in vivo; conditions: 1 μg/cm^2, adult fleas, after 48 h
Description: For the coating of the test tubes, 9 mg of active ingredient are first dissolved in 1 ml of acetone p.a. and then diluted to the desired concentration with acetone p.a. 250 μl of the solution are distributed homogeneously on the inner walls and base of a test tube (25 ml crimp top vial (Fisher Scientific, Order No. 320 55 60) by turning and rocking on a “Rock ‘n’ Roller” (Model L202, Labinco; rocking rotation at 30 rpm in a fume hood for 2 h). With 900 ppm active ingredient solution and internal surface area 44.7 cm^2, given homogeneous distribution, an area-based dose of 5 μg/cm^2 is achieved.
Preparation examples for the inventive halogen-substituted compounds of the formula (I) are tested for their contact efficiency with ectoparasitic insects (cat fleas here). For this purpose, crimp top vials are coated with 250 μl of an acetone solution of the active ingredient as described above. After the solvent has evaporated off, the tubes are populated with 5-10 fleas (adult Ctenocephalides felis), sealed with a perforated plastic lid and incubated in a horizontal position at room temperature and ambient humidity. After 48 h, efficacy (knockdown and mortality) and mortality are determined To this end, the test tubes are stood upright and the fleas are knocked to the base of the tube. […]

[3] = tested on: Phaedon cochleariae; test: Phaedon cochleariae - spray test; format: in vivo; conditions: 100 g/ha, Chinese cabbage leaf discs, after 7 days
Description: Solvent: 78.0 parts by weight of acetone
(§2) • 1.5 parts by weight of dimethylformamide Emulsifier: alkylaryl polyglycol ether
(§3) To produce an appropriate active ingredient formulation, 1 part by weight of active ingredient is dissolved using the specified parts by weight of solvent and made up with water containing an emulsifier concentration of 1000 ppm until the desired concentration is attained. To produce further test concentrations, the preparation is diluted with emulsifier-containing water.
Discs of Chinese cabbage leaves (Brassica pekinensis) are sprayed with an active ingredient formulation of the desired concentration and, after drying, populated with larvae of the mustard beetle (Phaedon cochleariae).
After 7 days, efficacy in % is determined 100% means that all the beetle larvae have been killed; 0% means that no beetle larvae have been killed.

[4] = tested on: Boophilus microplus Parkhurst strain, SP-resistant; test: Boophilus microplus - dip test; format: in vivo; conditions: 100 ppm, adult engorged female cattle ticks, after 7 days
Description: Test animals: cattle ticks (Boophilus microplus) Parkhurst strain, SP-resistant
(§4) Solvent: dimethyl sulphoxide
10 mg of active ingredient are dissolved in 0.5 ml of dimethyl sulphoxide. For the purpose of producing a suitable formulation, the active ingredient solution is diluted with water to the concentration desired in each case.
This active ingredient formulation is pipetted into tubes. 8-10 adult engorged female cattle ticks (Boophilus microplus) are transferred into a further tube with holes. The tube is immersed into the active ingredient formulation, and all the ticks are completely wetted. After the liquid has run out, the ticks are transferred on filter discs into plastic dishes and stored in a climate-controlled room.
Efficacy is assessed after 7 days by laying of fertile eggs. Eggs which are not visibly fertile are stored in a climate-controlled cabinet until the larvae hatch after about 42 days. An efficacy of 100% means that none of the ticks has laid any fertile eggs; 0% means that all the eggs are fertile.

[5] = tested on: Ctenocephalides felis; test: Ctenocephalides felis - oral test; format: in vivo; conditions: 100 ppm in citrated cattle blood, adult cat fleas, after 2 days
Description: as §4
For the purpose of producing an appropriate active ingredient formulation, 10 mg of active ingredient are mixed with 0.5 ml of dimethyl sulphoxide. Dilution with citrated cattle blood gives the desired concentration.
About 20 unfed adult cat fleas (Ctenocephalides felis) are placed into a chamber which is closed at the top and bottom with gauze. A metal cylinder whose bottom end is closed with parafilm is placed onto the chamber. The cylinder contains the blood/active ingredient preparation, which can be imbibed by the fleas through the parafilm membrane.
After 2 days, the kill in % is determined 100% means that all of the fleas have been killed; 0% means that none of the fleas have been killed.

[6] = logP by HPLC on reversed-phase column (C18), EEC Directive 79/831 Annex V.A8; format: physicochemical; conditions: HPLC, reversed-phase C18, acetonitrile (0.1% formic acid)/water (0.09% formic acid) gradient
[7] = tested on: Ctenocephalides felis; test: Ctenocephalides felis - in vitro contact tests with adult cat fleas; format: in vivo; conditions: 5 μg/cm^2, adult cat fleas, after 48 h
Description: as §1, with “surface area” for “surface”
After the solvent has evaporated off, the tubes are populated with 5-10 adult cat fleas (Ctenocephalides felis), sealed with a perforated plastic lid and incubated in a horizontal position at room temperature and ambient humidity. After 48 h, efficacy is determined. To this end, the test tubes are stood upright and the fleas are knocked to the base of the tube. Fleas which remain motionless at the base or move in an uncoordinated manner are considered to be dead or moribund.
100% efficacy means that all the fleas were dead or moribund. 0% efficacy means that no fleas were harmed.

[8] = tested on: Myzus persicae; test: Myzus persicae - spray test; format: in vivo; conditions: 100 g/ha, Chinese cabbage leaf discs, after 6 days
Description: Solvent: 78 parts by weight of acetone
as §2, §3
Discs of Chinese cabbage leaves (Brassica pekinensis) infested by all stages of the green peach aphid (Myzus persicae) are sprayed with an active ingredient formulation of the desired concentration.
After 6 days, efficacy in % is determined. 100% means that all the aphids have been killed; 0% means that none of the aphids have been killed.

Cc1cc(C(F)(C(F)(F)F)C(F)(F)F)cc(C)c1-c1cn(-c2ccc(Cl)c(C(=O)NC3CC3)c2)nn1 [I-T48-1, 2-chloro-N-cyclopropyl-5-[4-[2,6-dimethyl-4-[1,2,2,2-tetrafluoro-1-(trifluoromethyl)ethyl]phenyl]triazol-1-yl]benzamide]
100%: efficacy (dead or moribund) [1] | efficacy (moribund/knocked down or dead) [2] | efficacy (beetle larvae killed) [3] | efficacy (no fertile eggs laid) [4] | efficacy (kill in %) [5] | efficacy (dead or moribund) [7] | efficacy (aphids killed) [8]
4.19: chromatographic logP [6]
